Active and inactive are the calls of the source. No cut-off for these calls is given here.
Experiments:
SK-OV-3 [1] = assay: Cell cycle arrest in human SKOV3 cells assessed as accumulation at S phase at 5 nM after 24 hrs by propidium iodide staining-based flow cytometry (reference value: 31.2%); format: functional
SK-OV-3 [2] = assay: Cell cycle arrest in human SKOV3 cells assessed as accumulation at G2/M phase at 5 nM after 24 hrs by propidium iodide staining-based flow cytometry (reference value: 13.6%); format: functional
PBMC = assay: Cytotoxicity in human PBMC assessed as cell viability up to 10 uM after 48 hrs by MTS assay; format: cell-based
SK-OV-3 [3] = assay: Cell cycle arrest in human SKOV3 cells assessed as accumulation at G1 phase at 5 nM after 24 hrs by propidium iodide staining-based flow cytometry (reference value: 54.4%); format: functional
SK-OV-3 [4] = assay: Cytotoxicity against taxol-resistant human SKOV3 cells assessed as cell viability after 48 hrs by MTS assay; format: functional, cell-based; settings: SK-OV-3, 48 h
HUVEC [5] = assay: Antivascular activity in growth factor-induced HUVEC after 45 hrs xCELLigence analysis; format: functional, cell-based; settings: Homo sapiens
HUVEC [6] = assay: Antiproliferative activity against growth factor-induced HUVEC assessed as growth inhibition after 48 hrs by MTS assay; format: functional, cell-based; settings: Homo sapiens
HeLa [7] = assay: Antimitotic activity in human HeLa cells assessed as change in interphase microtubule network at 1 nM after 16 hrs by Hoechst staining-based confocal microscopy; format: functional, cell-based
HUVEC [8] = assay: Antivascular activity in growth factor-induced HUVEC after 24 hrs xCELLigence analysis; format: functional, cell-based; settings: Homo sapiens
K562 = assay: Cytotoxicity against human K562 cells; format: functional, cell-based
HeLa [9] = assay: Cytotoxicity against human HeLa cells assessed as cell viability after 48 hrs by MTS assay; format: functional, cell-based
HeLa [10] = assay: Antimitotic activity in human HeLa cells assessed as depolymerisation of interphase microtubule network at 10 to 100 nM after 16 hrs by Hoechst staining-based confocal microscopy; format: functional, cell-based
SK-OV-3 [11] = assay: Cytotoxicity against human SKOV3 cells assessed as cell viability after 48 hrs by MTS assay; format: functional, cell-based; settings: SK-OV-3, 48 h
SK-OV-3 [12] = assay: Antimitotic activity in taxol-resistant human SKOV3 cells at 1 to 100 nM after 16 hrs by Hoechst staining-based confocal microscopy; format: functional, cell-based
HeLa [13] = assay: Antimitotic activity in human HeLa cells assessed as disproportionate mitotic cells at 10 nM after 16 hrs by Hoechst staining-based confocal microscopy; format: functional, cell-based
HeLa [14] = assay: Antimitotic activity in human HeLa cells assessed as redistribution of microtubules around nuclear envelope of cells at 100 nM after 16 hrs by Hoechst staining-based confocal microscopy; format: functional, cell-based
SK-OV-3 [15] = assay: Antimitotic activity in human SKOV3 cells at 1 to 100 nM after 16 hrs by Hoechst staining-based confocal microscopy; format: functional, cell-based
HeLa [16] = assay: Antimitotic activity in human HeLa cells expressing GFP-tagged tubulin assessed as collapse of mitotic spindle during anaphase at 10 nM after 31 mins by fluorescence-based spinning-disk confocal microscopy; format: functional, cell-based
HeLa [17] = assay: Antimitotic activity in human HeLa cells assessed as membrane blebbing at 0.1 to 1 uM after 16 hrs by Hoechst staining-based confocal microscopy; format: functional, cell-based
HeLa [18] = assay: Antimitotic activity in human HeLa cells expressing GFP-tagged tubulin assessed as membrane blebbing during interphase at 10 nM after 51 mins by fluorescence-based spinning-disk confocal microscopy; format: functional, cell-based
HeLa [19] = assay: Antimitotic activity in human HeLa cells expressing GFP-tagged tubulin assessed as membrane blebbing during interphase at 10 to 100 nM after 31 to 34 mins by fluorescence-based spinning-disk confocal microscopy; format: functional, cell-based
HeLa [20] = assay: Antimitotic activity in human HeLa cells assessed as depolymerisation of interphase microtubule network at 0.1 to 1 uM after 16 hrs by Hoechst staining-based confocal microscopy; format: functional, cell-based
HeLa [21] = assay: Antimitotic activity in human HeLa cells expressing GFP-tagged tubulin assessed as disappearance of mitotic spindle during metaphase at 10 to 100 nM after 21 to 36 mins by fluorescence-based spinning-disk confocal microscopy; format: functional, cell-based
SK-OV-3 [22] = assay: Cell cycle arrest in human SKOV3 cells assessed as accumulation at G2/M phase at 200 nM after 24 hrs by propidium iodide staining-based flow cytometry (reference value: 13.6%); format: functional

Row | SMILES | Activity (SK-OV-3 [1]) [%] | Activity (SK-OV-3 [2]) [%] | Activity (SK-OV-3 [3]) [%] | EC50 (HUVEC [5]) [nM] | EC50 (HUVEC [8]) [nM] | EC50 (K562) [nM] | further results
1 | COc1ccc(/C=C\c2cc(OC)c(OC)c(OC)c2)cc1O [COMBRETASTATIN A4] | 23.1 | 30.5 | 40.1 | 0.9 | 1.9 | 1 | Activity (PBMC): Non-toxic; EC50 (SK-OV-3 [4]): 3.1 nM; EC50 (HUVEC [6]): 3.2 nM; Activity (HeLa [7]): inactive; EC50 (HeLa [9]): 1.4 nM; Activity (HeLa [10]): Active; EC50 (SK-OV-3 [11]): 1.2 nM
2 | COc1ccc(/C=C\c2cc(Cl)c(OC)c(Cl)c2)cc1O | 18.6 | 32.2 | 43.7 | 2.3 | 2.6 | – | –
3 | COc1ccc(/C=C\c2cc(I)c(OC)c(I)c2)cc1O | 12.9 | 83.6 | 1.3 | 0.9 | 0.9 | – | –
4 | COc1ccc(/C=C\c2cc(Br)c(OC)c(Br)c2)cc1O | 21 | 51.5 | 25.7 | 1.1 | 2.2 | – | Activity (PBMC): Non-toxic; EC50 (SK-OV-3 [4]): 1.1 nM; Activity (SK-OV-3 [12]): Active; Activity (HeLa [13]): Active; Activity (HeLa [14]): Active; Activity (SK-OV-3 [15]): Active; Activity (HeLa [16]): Active; Activity (HeLa [17]): Active; Activity (HeLa [18]): Active; Activity (HeLa [19]): Active; EC50 (HUVEC [6]): 0.2 nM; Activity (HeLa [20]): Active; Activity (HeLa [21]): Active; EC50 (HeLa [9]): 6.7 nM; EC50 (SK-OV-3 [11]): 1.7 nM
5 | COc1ccc(/C=C\c2ccc(C)c(C)c2)cc1O | – | – | – | – | – | 70 | –
6 | COc1ccc(/C=C\c2cc(C)c(C)c(C)c2)cc1O | – | – | – | – | – | 20 | –
7 | COc1ccc(/C=C\c2cc(F)c(OC)c(F)c2)cc1O | – | – | – | 224 | 193 | – | Activity (SK-OV-3 [22]): 73.7%
8 | COc1ccc(/C=C\c2ccccc2)cc1O | – | – | – | – | – | 500 | –

Source: ChEMBL document CHEMBL3217503, “Antivascular and anticancer activity of dihalogenated A-ring analogues of combretastatin A-4” (Medchemcomm, 2010)
